From patent publication US8415469B2, “Compounds and methods for kinase modulation, and indications therefor” (Plexxikon Inc., priority 2005, dated 2013)

Assays:
Assay type in all cases: biochemical
[1] = molecular target: T1, Ret (Homo sapiens, UniProt P07949); assay: AlphaScreen kinase assay, Ret; conditions: read-out: IC50, activity toward kinase Ret
T1 construct: P1378.pET-SF BI-PTP RET H661-R1012 HIS; made in house
T1 sequence (P07949 with tags, fused parts or gaps): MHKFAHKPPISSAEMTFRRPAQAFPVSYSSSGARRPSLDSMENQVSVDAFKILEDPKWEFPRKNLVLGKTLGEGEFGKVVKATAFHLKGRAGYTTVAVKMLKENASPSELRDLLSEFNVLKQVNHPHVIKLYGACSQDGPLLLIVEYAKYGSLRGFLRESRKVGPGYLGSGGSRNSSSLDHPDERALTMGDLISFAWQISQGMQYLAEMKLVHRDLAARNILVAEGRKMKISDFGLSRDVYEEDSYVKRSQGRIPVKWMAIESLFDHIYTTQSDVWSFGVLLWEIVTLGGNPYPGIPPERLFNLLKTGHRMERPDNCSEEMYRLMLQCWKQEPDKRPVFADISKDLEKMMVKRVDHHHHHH

[2] = molecular target: T2, Jnk3 (Homo sapiens, UniProt P53779); assay: AlphaScreen kinase assay, Jnk3; conditions: read-out: IC50, activity toward kinase Jnk3
T2 construct: purchased Upstate Biotechnology
T2 sequence (P53779 whole entry): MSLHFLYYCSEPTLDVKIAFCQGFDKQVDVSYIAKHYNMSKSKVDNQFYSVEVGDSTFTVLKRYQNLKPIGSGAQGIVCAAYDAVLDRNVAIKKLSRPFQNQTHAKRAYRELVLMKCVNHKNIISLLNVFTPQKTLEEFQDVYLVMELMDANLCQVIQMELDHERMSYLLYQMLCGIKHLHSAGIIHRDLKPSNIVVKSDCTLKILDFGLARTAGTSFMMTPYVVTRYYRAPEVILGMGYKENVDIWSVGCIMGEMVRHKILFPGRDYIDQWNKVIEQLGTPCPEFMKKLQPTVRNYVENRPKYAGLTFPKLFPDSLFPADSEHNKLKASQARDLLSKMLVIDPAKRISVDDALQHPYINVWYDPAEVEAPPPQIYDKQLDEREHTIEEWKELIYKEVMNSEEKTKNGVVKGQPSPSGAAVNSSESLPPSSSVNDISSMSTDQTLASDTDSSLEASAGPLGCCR

[3] = molecular target: T3, Flt4 (Homo sapiens, UniProt P35916); assay: AlphaScreen kinase assay, Flt4; conditions: read-out: IC50, activity toward kinase Flt4
T3 construct: purchased ProQinase GmbH (Freiburg, Germany)
T3 sequence (P35916 25-1363): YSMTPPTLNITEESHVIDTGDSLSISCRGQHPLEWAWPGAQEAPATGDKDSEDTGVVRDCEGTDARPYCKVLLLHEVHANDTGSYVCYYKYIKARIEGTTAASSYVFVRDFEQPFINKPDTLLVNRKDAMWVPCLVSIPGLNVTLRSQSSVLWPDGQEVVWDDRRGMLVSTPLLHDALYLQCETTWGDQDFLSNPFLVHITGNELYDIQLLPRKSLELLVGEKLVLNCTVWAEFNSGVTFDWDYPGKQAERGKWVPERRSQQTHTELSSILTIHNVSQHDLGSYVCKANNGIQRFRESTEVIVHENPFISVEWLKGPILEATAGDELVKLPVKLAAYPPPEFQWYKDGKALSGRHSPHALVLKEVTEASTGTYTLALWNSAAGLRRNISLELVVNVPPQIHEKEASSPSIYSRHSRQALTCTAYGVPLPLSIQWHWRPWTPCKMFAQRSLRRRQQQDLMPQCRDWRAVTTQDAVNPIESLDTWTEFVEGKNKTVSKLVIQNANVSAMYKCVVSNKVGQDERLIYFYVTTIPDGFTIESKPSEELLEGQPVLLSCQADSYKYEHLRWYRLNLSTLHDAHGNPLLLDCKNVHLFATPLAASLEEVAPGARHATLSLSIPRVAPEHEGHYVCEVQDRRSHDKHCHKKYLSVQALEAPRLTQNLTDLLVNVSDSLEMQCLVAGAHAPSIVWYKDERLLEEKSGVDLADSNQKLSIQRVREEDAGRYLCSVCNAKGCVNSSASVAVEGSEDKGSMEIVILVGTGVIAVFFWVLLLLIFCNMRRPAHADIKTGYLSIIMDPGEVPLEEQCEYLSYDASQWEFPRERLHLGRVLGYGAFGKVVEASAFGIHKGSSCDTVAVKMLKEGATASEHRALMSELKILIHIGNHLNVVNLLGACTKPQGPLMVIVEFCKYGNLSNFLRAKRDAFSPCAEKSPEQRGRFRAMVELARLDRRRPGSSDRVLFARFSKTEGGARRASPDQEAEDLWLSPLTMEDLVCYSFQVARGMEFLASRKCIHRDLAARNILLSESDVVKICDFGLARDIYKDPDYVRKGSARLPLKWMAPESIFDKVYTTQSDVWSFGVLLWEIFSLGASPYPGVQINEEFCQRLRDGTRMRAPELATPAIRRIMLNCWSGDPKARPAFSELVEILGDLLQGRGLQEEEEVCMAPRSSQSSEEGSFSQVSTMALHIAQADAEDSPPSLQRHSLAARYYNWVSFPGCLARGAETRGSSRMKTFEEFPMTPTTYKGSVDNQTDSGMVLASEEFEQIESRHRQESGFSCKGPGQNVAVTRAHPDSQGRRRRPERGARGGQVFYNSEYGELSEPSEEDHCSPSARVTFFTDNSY
From the text: AlphaScreen assay was used to screen additional kinases. The assay is similarly dependent on the phosphorylation of a peptide substrate. In this assay, an antibody that recognizes phosphorylated substrate is bound to an acceptor bead. The peptide substrate is attached to biotin, which binds to a donor head that contains streptavidin. Thus phosphorylated substrate is bound by antibody and streptavidin, bringing the donor and acceptor heads into close proximity when kinase is not inhibited. The donor produces singlet oxygen which results in emission from the acceptor when they are in close proximity. Conversely, when kinase is inhibited, the donor and acceptor beads are not associated and the emission from the acceptor is reduced.
AlphaScreen assays were done using compounds dissolved in DMSO to a concentration of 20 mM. The compounds were diluted accordingly to the desired final concentrations in each sample well, using 1:3 serial dilution for a total of 8 concentration points.

[4] = molecular target: T4, Abl (Homo sapiens, UniProt P00519); assay: AlphaScreen kinase assay, Abl; conditions: read-out: activity toward kinase Abl, IC50
T4 construct: P1121. pET-SPEC BI-PTP Abl G227-V515-X; His6 (N); made in house; host or cells: E. coli (PTP1B co-expressed)
T4 sequence (P00519 with tags, fused parts or gaps): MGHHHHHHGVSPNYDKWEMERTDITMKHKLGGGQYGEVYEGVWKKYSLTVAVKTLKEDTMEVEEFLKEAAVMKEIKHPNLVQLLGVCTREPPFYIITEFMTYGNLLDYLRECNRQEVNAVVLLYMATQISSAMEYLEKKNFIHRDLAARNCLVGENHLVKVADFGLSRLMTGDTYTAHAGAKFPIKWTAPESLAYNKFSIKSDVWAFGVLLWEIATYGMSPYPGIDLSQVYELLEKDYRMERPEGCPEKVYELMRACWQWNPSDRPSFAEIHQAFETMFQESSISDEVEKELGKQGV
How it was run: (§1)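 Eight concentrations per compound (1:3 serial dilution of 20 mM DMSO stock) were tested. Read-out: AlphaScreen signal from phospho-antibody acceptor and streptavidin donor beads bound to biotinylated peptide substrate, reduced on kinase inhibition.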

[5] = molecular target: T5, Kdr (Homo sapiens, UniProt P35968); assay: Z'-Lyte FRET kinase assay (Invitrogen), Kdr; conditions: read-out: IC50, activity toward kinase Kdr
T5 construct: purchased Invitrogen (assay run by Invitrogen)
T5 sequence (P35968 20-1356): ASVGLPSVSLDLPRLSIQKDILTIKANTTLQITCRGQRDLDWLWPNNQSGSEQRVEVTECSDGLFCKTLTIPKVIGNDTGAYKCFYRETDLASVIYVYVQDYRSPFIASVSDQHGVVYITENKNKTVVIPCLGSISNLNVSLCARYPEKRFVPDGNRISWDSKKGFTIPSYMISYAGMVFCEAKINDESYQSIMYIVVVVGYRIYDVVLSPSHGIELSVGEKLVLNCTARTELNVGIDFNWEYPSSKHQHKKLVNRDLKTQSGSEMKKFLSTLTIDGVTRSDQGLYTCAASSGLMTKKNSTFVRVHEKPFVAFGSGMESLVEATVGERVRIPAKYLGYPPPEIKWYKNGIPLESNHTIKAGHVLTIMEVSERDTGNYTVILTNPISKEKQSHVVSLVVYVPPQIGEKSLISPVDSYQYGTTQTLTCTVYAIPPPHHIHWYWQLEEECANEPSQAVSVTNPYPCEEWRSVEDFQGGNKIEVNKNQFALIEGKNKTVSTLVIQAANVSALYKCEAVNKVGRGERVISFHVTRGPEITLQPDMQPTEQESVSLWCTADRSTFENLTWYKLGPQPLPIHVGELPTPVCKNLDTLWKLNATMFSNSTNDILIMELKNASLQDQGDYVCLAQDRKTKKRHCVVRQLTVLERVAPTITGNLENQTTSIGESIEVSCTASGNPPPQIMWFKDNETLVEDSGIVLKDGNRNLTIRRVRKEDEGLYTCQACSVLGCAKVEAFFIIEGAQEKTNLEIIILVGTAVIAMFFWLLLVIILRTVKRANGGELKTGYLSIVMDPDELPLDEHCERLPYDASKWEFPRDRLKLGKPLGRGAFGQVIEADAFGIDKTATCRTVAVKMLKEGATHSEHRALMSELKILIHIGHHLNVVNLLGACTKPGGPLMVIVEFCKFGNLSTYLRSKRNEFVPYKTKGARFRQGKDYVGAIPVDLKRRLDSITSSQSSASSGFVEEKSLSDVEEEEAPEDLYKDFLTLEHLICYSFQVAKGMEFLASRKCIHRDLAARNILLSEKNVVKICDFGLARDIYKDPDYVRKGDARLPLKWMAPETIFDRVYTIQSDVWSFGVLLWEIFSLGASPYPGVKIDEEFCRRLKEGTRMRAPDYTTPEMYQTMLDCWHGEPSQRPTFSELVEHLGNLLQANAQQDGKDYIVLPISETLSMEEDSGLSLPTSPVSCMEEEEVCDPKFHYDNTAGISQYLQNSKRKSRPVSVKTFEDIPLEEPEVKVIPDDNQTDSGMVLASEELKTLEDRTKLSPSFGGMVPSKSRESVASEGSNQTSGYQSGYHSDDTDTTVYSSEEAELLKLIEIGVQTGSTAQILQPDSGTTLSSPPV

[6] = molecular target: T6, Kit (Homo sapiens, UniProt P10721); assay: AlphaScreen kinase assay, Kit; conditions: read-out: IC50, activity toward kinase Kit
T6 construct: P1332.N6 BI PTP KIT M552-K948-X COD; His6 (N); made in house; host or cells: E. coli (PTP1B co-expressed)
T6 sequence (P10721 with tags, fused parts or gaps): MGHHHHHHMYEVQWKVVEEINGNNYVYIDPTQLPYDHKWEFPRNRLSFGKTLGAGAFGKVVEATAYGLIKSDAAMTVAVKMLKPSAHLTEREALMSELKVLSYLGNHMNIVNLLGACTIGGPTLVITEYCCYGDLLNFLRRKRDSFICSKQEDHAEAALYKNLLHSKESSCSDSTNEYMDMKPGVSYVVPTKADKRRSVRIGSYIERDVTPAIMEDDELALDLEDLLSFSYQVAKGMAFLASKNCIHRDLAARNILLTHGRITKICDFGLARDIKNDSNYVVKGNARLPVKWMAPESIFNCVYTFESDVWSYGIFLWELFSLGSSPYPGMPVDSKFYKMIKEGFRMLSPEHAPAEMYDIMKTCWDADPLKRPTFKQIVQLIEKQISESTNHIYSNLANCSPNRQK

[7] = molecular target: T7, B-Raf (Homo sapiens, UniProt P15056); assay: AlphaScreen kinase assay, B-Raf; conditions: read-out: IC50, activity toward kinase B-Raf
T7 construct: purchased Upstate Biotechnology

[8] = molecular target: T8, Jnk2 (Homo sapiens, UniProt P45984); assay: AlphaScreen kinase assay, Jnk2; conditions: read-out: IC50, activity toward kinase Jnk2
T8 construct: purchased Roche Protein Expression Group (Indianapolis, IN)
How it was run: as §1

[9] = molecular target: T9, FGFR1 (Homo sapiens, UniProt P11362, C488A/C584S); assay: AlphaScreen kinase assay, FGFR1; conditions: read-out: IC50, activity toward kinase FGFR
T9 construct: P1351.pET N6 BI-PTP FGFR A458-E765-X C488A, C584S; made in house; host or cells: E. coli (PTP1B co-expressed)
T9 sequence (P11362 458-765 C488A/C584S): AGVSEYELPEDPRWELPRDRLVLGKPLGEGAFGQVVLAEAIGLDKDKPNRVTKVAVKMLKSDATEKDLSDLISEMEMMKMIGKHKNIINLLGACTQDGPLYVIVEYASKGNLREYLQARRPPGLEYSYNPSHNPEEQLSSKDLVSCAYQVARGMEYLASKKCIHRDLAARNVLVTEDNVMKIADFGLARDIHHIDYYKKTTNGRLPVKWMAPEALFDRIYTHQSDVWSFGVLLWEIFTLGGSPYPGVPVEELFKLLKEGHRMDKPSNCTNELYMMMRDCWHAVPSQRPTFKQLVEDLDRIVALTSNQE

[10] = molecular target: T10, B-Raf V600E (Homo sapiens, UniProt P15056, V600E); assay: AlphaScreen kinase assay, B-Raf V600E; conditions: read-out: IC50, activity toward kinase B-Raf V600E
T10 construct: P4254. pFastBacBD-CDC37 BRAF D437-K722-X, V600E; His6 with pFastBac HT leader (TEV site) (N); made in house; host or cells: Sf9 (baculovirus; chaperone CDC37 co-expressed)
T10 sequence (P15056 with tags, fused parts or gaps V600E): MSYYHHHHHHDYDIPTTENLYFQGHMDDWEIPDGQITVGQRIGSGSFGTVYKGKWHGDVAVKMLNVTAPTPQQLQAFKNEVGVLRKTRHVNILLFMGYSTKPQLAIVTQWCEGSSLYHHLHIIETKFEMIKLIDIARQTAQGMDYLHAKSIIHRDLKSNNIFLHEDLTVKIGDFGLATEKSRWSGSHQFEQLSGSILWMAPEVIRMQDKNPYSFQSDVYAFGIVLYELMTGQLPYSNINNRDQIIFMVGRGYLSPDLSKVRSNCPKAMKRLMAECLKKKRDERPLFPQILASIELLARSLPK

[11] = molecular target: T11, Src (Homo sapiens, UniProt P12931); assay: AlphaScreen kinase assay, Src; conditions: read-out: IC50, activity toward kinase Src
T11 construct: P1144. pET-N6 BI-PTP SRC V86-L536-X; made in house
T11 sequence (P12931 with tags, fused parts or gaps): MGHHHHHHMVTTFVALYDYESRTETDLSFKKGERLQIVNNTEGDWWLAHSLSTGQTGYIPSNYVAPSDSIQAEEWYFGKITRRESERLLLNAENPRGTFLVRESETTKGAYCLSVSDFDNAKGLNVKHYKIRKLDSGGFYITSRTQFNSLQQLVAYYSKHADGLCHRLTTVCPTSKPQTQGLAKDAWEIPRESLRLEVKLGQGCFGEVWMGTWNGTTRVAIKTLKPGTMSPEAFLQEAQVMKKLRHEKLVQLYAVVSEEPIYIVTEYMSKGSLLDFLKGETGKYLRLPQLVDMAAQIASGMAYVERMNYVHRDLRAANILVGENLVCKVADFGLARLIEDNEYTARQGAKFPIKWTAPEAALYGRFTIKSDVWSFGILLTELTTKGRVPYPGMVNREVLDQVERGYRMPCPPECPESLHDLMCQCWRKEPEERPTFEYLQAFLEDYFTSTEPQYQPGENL

[12] = molecular target: T12, Jnk1 (Homo sapiens, UniProt P45983); assay: AlphaScreen kinase assay, Jnk1; conditions: read-out: IC50, activity toward kinase Jnk1
T12 construct: purchased Upstate Biotechnology

[13] = molecular target: T13, Fak (Homo sapiens, UniProt Q05397); assay: AlphaScreen kinase assay, Fak; conditions: read-out: IC50, activity toward kinase Fak
T13 construct: P1358.pFastBacHtb FAK S411-Q686-X; His6 with pFastBacHTb leader (TEV site) (N); made in house; host or cells: Sf9 (baculovirus)
T13 sequence (Q05397 411-686): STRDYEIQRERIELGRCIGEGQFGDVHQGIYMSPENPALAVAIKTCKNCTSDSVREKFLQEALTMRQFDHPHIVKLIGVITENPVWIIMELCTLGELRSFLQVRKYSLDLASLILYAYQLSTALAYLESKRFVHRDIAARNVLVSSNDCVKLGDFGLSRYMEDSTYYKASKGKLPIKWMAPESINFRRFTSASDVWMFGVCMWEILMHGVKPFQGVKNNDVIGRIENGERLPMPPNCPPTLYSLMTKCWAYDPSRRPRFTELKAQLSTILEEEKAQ

[14] = molecular target: T14, Flt1 (Homo sapiens, UniProt P17948); assay: AlphaScreen kinase assay, Flt1; conditions: read-out: IC50, activity toward kinase Flt1
T14 construct: P1826.pETN6 BI-PTP FLT1 M799-D1165-X WT; His6 (N); made in house; host or cells: E. coli (PTP1B co-expressed)
T14 sequence (P17948 with tags, fused parts or gaps): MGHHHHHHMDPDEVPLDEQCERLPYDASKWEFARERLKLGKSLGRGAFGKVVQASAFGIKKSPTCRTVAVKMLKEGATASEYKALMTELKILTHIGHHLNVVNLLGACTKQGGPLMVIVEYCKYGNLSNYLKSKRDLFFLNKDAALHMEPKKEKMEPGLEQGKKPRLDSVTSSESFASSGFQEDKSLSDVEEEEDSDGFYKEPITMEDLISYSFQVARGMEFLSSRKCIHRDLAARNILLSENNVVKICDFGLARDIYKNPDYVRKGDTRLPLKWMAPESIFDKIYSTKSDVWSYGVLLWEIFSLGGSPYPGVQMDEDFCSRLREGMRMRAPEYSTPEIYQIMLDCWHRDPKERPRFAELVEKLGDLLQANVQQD

IC50 [1] [µM] | IC50 [2] [µM] | IC50 [3] [µM] | IC50 [4] [µM] | IC50 [5] [µM] | IC50 [6] [µM] | IC50 [7] [µM] | IC50 [8] [µM] | IC50 [9] [µM] | IC50 [10] [µM] | IC50 [11] [µM] | IC50 [12] [µM] | IC50 [13] [µM] | IC50 [14] [µM] | Compound
≤ 10 | ≤ 10 | ≤ 10 | ≤ 10 | ≤ 10 | ≤ 10 |  |  |  |  |  |  |  |  | Nc1cccc(-c2cnc3[nH]cc(C(=O)c4ccc(Cl)cc4)c3c2)c1 [Compound P-0738]
≤ 10 | ≤ 10 | ≤ 10 | ≤ 10 |  | ≤ 10 | ≤ 10 | ≤ 10 | ≤ 10 | ≤ 10 |  |  |  |  | COc1cc(O)cc(Cc2c[nH]c3ncc(-c4ccsc4)cc23)c1 [Compound P-0594]
≤ 10 | ≤ 10 | ≤ 10 | ≤ 10 | ≤ 10 | ≤ 10 |  |  | ≤ 10 | ≤ 10 | ≤ 10 |  |  |  | NC(=O)c1ccc(-c2cnc3[nH]cc(C(=O)c4cccc(O)c4)c3c2)cc1 [Compound P-0645]
≤ 10 | ≤ 10 | ≤ 10 | ≤ 10 | ≤ 10 | ≤ 10 |  |  | ≤ 10 | ≤ 10 |  | ≤ 10 | ≤ 10 | ≤ 10 | NC(=O)c1ccc(-c2cnc3[nH]cc(C(=O)c4ccccc4F)c3c2)cc1 [Compound P-0691]
≤ 10 |  | ≤ 10 | ≤ 10 | ≤ 10 | ≤ 10 |  |  |  |  |  |  | ≤ 10 | ≤ 10 | Cc1cc(C(=O)c2c[nH]c3ncc(-c4cccc(C(N)=O)c4)cc23)n(C)n1 [Compound P-0224]
≤ 10 |  | ≤ 10 | ≤ 10 |  | ≤ 10 |  |  | ≤ 10 | ≤ 10 | ≤ 10 |  |  |  | COc1cccc(C(=O)C2C=Nc3nccc(-c4cc(F)cc(F)c4)c32)c1 (stereo not shown) [Compound P-0453]
≤ 10 |  | ≤ 10 | ≤ 10 | ≤ 10 | ≤ 10 |  |  |  | ≤ 10 |  |  |  |  | Cc1cc(C(=O)c2c[nH]c3ncc(-c4ccc(C(N)=O)cc4)cc23)n(C)n1 [Compound P-0762]
